Measured values published in patent US20220242905A1, “MODIFIED PEPTIDES AND THEIR USE” (UNIVERSITE DE MONTPELLIER, priority 2018, published 2022).
≈ marks a conversion by molar mass, not a printed value.

Legend:
Hemolytic activity = type: cell-based, Human; conditions: human, human red blood cell suspension; hRBCs, 1 h at 37° C.; read-out: HD50, dose required to lyse 50% of the red blood cells
Method: Procedure for measurements of hemolytic activity: Human red blood cells (hRBCs) were washed multiple times with phosphate-buffered saline (PBS) until a clear supernatant was obtained. The hRBCs suspension was made in PBS with a Packed Cell Volume of 5%, Two-fold serial dilutions (50 μL) of oligomers in sterile water (pH adjusted between 7.4 and 7.7 with HCl and NaOH solutions) were mixed with hRBCs suspension (50 μL) in clear polystyrene optical-bottom 96-well plates which were filmed and incubated for 1 h at 37° C. A 1/1 vv hRBCs solution/PBS mixture was used a negative control and a 1/1 vv hRBCs solution/1% (TRIS 50 mM pH=8.0+1% SDS) mixture was used a positive control for 100% hemolysis. The mixture was then centrifuged at 1500 g for 10 min at 5° C. Next, 50 μL of the supernatant was transferred into a second plate, and the absorbance was read at 490 nm using a BioRad iMark plate reader. The hemolysis percentage was calculated by the formula % hemolysis=[Absorbance (sample)−Absorbance (negative control)]/[Absorbance (positive control)−Absorbance (negative control)]×100%. Each assay was performed in a double duplicate. Hemolytic activity was determined or estimated with the Hemolytic Concentration leading to 50% of lysis of hRBCs (HC50).

[1] = system: Candida albicans ATCC10231; type: cell-based; conditions: for Minimal inhibitory concentration (MIC) C. albicans ATCC10231: ATCC10231, 48 h; for Minimal bactericidal concentration (MBC) C. albicans ATCC10231: value in bracket, 48 h at 25° C.
Method: (§1) Minimal inhibitory concentration (MIC) values and minimal bactericidal concentration (MBCs) values for ATC-peptides 1-9 were determined against both Gram-positive (Bacillus subtilis, Staphylococcus aureus, Enterococcus faecalis) and Gram negative (Escherichia coli, Pseudomonas aeruginosa) bacteria as well as a yeast (Candida albicans). Experiments were conducted in triplicate. For B. subtilis, compounds were tested against vegetative cells and spores, which are particularly resistant to the action of antimicrobial agents. MIC and MBCs values are shown Table 12. In addition, haemolytic properties of 1-9 were tested.
(§2) the antimicrobial performances of oligomers antimicrobial activity were determined on three Gram positive strains (Bacillus subtilis ATCC6633, Staphylococcus aureus ATCC6538 and Enterococcus faecalis ATCC29121), two Gram negative strains (Escherichia coli ATCC8739 and Pseudomonas aeruginosa ATCC9027) and one fungal strain (Candida albicans ATCC10231). Each bacterial strain was allowed to grow overnight on Trypto-Caseine-Soja agar (TSA, Difco) at 37° C., C. albicans was allowed to grow 48 h on a sabouraud medium (Difco) at 20-25° C. A fresh suspension at 10^8 CFU·mL^−1 was then prepared by inoculating the micro-organisms in a Tryptone-Sel solution. Concentration was monitored by measuring transmitted light at 620 nm or with the Mac Farland turbidity standard (Mac Farland=0.5≈10^8 CFU·mL^−1). Each suspension was then diluted in a doubly strong Mueller-Hinton (MH, Difco) broth to […]. Two-fold serial dilutions (100 μL) of oligomers in sterile water (pH adjusted between 7.4 and 7.7 with HCl and NaOH solutions) were mixed with microbial inoculum (100 μL) in NUNC sterile clear polystyrene flat-bottom 96-well plates. A 1/1 v/v oligomer solution/water mixture was used a negative control and a 1/1 vv water/microbial inoculum mixture was used a positive control. Plates were then incubated 24 h at 37° C. for bacteria and 48 h at 25° C. for C. albicans. Minimum Inhibitory Concentration (MIC) was determined as the lowest concentration inhibiting the growth of each micro-organism. […] Minimum Bactericidal Concentration (MBC) was determined as the lowest concentration that prevent the growth of more than one colony. Each assay was performed in a triple duplicate for each strain.

[2] = system: Pseudomonas aeruginosa ATCC9027; type: cell-based; conditions: for Minimal inhibitory concentration (MIC) P. aeruginosa ATCC9027: ATCC9027, 24 h; for Minimal bactericidal concentration (MBC) P. aeruginosa ATCC9027: value in bracket, 24 h at 37° C.
Method: as §1, §2

[3] = system: Enterococcus faecalis ATCC29121; type: cell-based; conditions: for Minimal inhibitory concentration (MIC) E. faecalis ATCC29121: ATCC29121, 24 h; for Minimal bactericidal concentration (MBC) E. faecalis ATCC29121: value in bracket, 24 h at 37° C.
Method: as §1, §2

[4] = system: Bacillus subtilis ATCC6633; type: cell-based; conditions: for Minimal inhibitory concentration (MIC) B. subtilis ATCC6633: ATCC6633, 24 h; for Minimal bactericidal concentration (MBC) B. subtilis ATCC6633: value in bracket, 24 h at 37° C.
Method: as §1, §2

[5] = system: Staphylococcus aureus ATCC6538; type: cell-based; conditions: for Minimal inhibitory concentration (MIC) S. aureus ATCC6538: ATCC6538, 24 h; for Minimal bactericidal concentration (MBC) S. aureus ATCC6538: value in bracket, 24 h at 37° C.
Method: as §1, §2

[6] = system: Escherichia coli ATCC8739; type: cell-based; conditions: for Minimal inhibitory concentration (MIC) E. coli ATCC8739: ATCC8739, 24 h; for Minimal bactericidal concentration (MBC) E. coli ATCC8739: value in bracket, 24 h at 37° C.
Method: as §1, §2

Row | Minimal inhibitory concentration (MIC) C. albicans ATCC10231 [1] | Minimal inhibitory concentration (MIC) P. aeruginosa ATCC9027 [2] | Minimal inhibitory concentration (MIC) E. faecalis ATCC29121 [3] | Minimal inhibitory concentration (MIC) B. subtilis ATCC6633 [4] | Minimal inhibitory concentration (MIC) S. aureus ATCC6538 [5] | Minimal inhibitory concentration (MIC) E. coli ATCC8739 [6] | SMILES | HC50 at 1 h (Hemolytic activity) | Minimal bactericidal concentration (MBC) C. albicans ATCC10231 [1] | Minimal bactericidal concentration (MBC) P. aeruginosa ATCC9027 [2] | Minimal bactericidal concentration (MBC) E. faecalis ATCC29121 [3] | Minimal bactericidal concentration (MBC) B. subtilis ATCC6633 [4] | Minimal bactericidal concentration (MBC) S. aureus ATCC6538 [5] | Minimal bactericidal concentration (MBC) E. coli ATCC8739 [6]
1 | >150 µM | >150 µM | >150 µM | >150 µM | >150 µM | >150 µM | CC(=O)N[C@@H](CCCCN)c1nc(C)sc1C(=O)N[C@@H](C)c1nc(CCCCN)sc1C(=O)N[C@@H](C)c1nc(C)sc1C(N)=O [Oligomer 1] | > 100 µM | – | – | – | – | – | –
2 | 62.5 µM (≈ 81 µg/mL) | >150 µM | >150 µM | 30 µM (≈ 38.9 µg/mL) | >150 µM | >150 µM | CC(=O)N[C@@H](CCCCN)c1nc(C)sc1C(=O)N[C@@H](C)c1nc(CCCCN)sc1C(=O)N[C@@H](C)c1nc(C)sc1C(=O)N[C@@H](CCCCN)c1nc(C)sc1C(=O)N[C@@H](C)c1nc(CCCCN)sc1C(=O)N[C@@H](C)c1nc(C)sc1C(N)=O [Oligomer 2] | > 100 µM | – | – | – | – | – | –
3 | 10.4 µM (≈ 19.9 µg/mL) | 42 µM (≈ 80.5 µg/mL) | >150 µM | 0.8 µM (≈ 1.53 µg/mL) | >150 µM | 5.2 µM (≈ 9.96 µg/mL) | CC(=O)N[C@@H](CCCCN)c1nc(C)sc1C(=O)N[C@@H](C)c1nc(CCCCN)sc1C(=O)N[C@@H](C)c1nc(C)sc1C(=O)N[C@@H](CCCCN)c1nc(C)sc1C(=O)N[C@@H](C)c1nc(CCCCN)sc1C(=O)N[C@@H](C)c1nc(C)sc1C(=O)N[C@@H](CCCCN)c1nc(C)sc1C(=O)N[C@@H](C)c1nc(CCCCN)sc1C(=O)N[C@@H](C)c1nc(C)sc1C(N)=O [Oligomer 3] | > 100 µM | (10.4) μM | (83) μM | (>150) μM | (0.8) μM | (>150) μM | (7.3) μM
4 | 3.7 µM (≈ 9.38 µg/mL) | 3.9 µM (≈ 9.88 µg/mL) | >150 µM | 0.5 µM (≈ 1.27 µg/mL) | 26 µM (≈ 65.9 µg/mL) | 1.6 µM (≈ 4.06 µg/mL) | CC(=O)N[C@@H](CCCCN)c1nc(C)sc1C(=O)N[C@@H](C)c1nc(CCCCN)sc1C(=O)N[C@@H](C)c1nc(C)sc1C(=O)N[C@@H](CCCCN)c1nc(C)sc1C(=O)N[C@@H](C)c1nc(CCCCN)sc1C(=O)N[C@@H](C)c1nc(C)sc1C(=O)N[C@@H](CCCCN)c1nc(C)sc1C(=O)N[C@@H](C)c1nc(CCCCN)sc1C(=O)N[C@@H](C)c1nc(C)sc1C(=O)N[C@@H](CCCCN)c1nc(C)sc1C(=O)N[C@@H](C)c1nc(CCCCN)sc1C(=O)N[C@@H](C)c1nc(C)sc1C(N)=O [Oligomer 4] | > 100 µM | (3.7) μM | (5.2) μM | (>150) μM | (0.5) μM | (57) μM | (1.6) μM
